Assay results published in patent publication US8946257B2, “N-containing heteroaryl derivatives as JAK3 kinase inhibitors” (Vectura Limited, priority 2009, dated 2015).

Key:
[1] = target: catalytic domain of human JAK3 (Homo sapiens, UniProt P52333); assay: Inhibition of JAK3 activity (Z'-Lyte Kinase Assay kit-Tyr 6 Peptide); format: biochemical
Description: The inhibition of JAK3 kinase activity was determined in 384-well assay microplates using the Z′-Lyte® Kinase Assay kit-Tyr 6 Peptide kit, supplied by Invitrogan (Ref: PV4122), following the manufacturer's instructions.
(§1) In a final volume of 10 μL per well, 2.5 μL of the product to be tested dissolved in 4% DMSO (final concentration of the product to be tested, 0.1-10000 nM) was incubated with 0.3 μg/mL of the catalytic domain of human JAK3 (amino acid sequence 281-1124), 2 μM of the substrate peptide Z′-Lyte® Tyr 6 and 4 μM of ATP; all components were dissolved in 50 mM pH 7.5 Hepes buffer, 10 mM Magnesium chloride (II), 1 mM EGTA and 0.01% Brij® 35. The reaction was started by the addition of said 4 μM ATP; after incubation for 1 hour at 25° C., 5 μL of A Z′-Lyte® Tyr 6 development reagent was added and the mixture was incubated for 1 hour at 25° C. Phosphorylation was then quantified in each well using a Safire2® fluorescence microplate reader from Tecan.

[2] = target: T1, catalytic domain of human JAK2 (Homo sapiens, UniProt O60674); assay: Inhibition of JAK2 activity (Z'-Lyte Kinase Assay kit-Tyr 6 Peptide); format: biochemical
T1 construct: the catalytic domain of human JAK2
Description: The inhibition of JAK2 kinase activity was determined in 384-well assay microplates using the Z′-Lyte® Kinase Assay kit-Tyr 6 Peptide kit, supplied by Invitrogen (Ref: PV4122), following the manufacturer's instructions.
as §1, with “with 0.5 μg/well” for “with 0.3 μg/mL”, “human JAK2,” for “human JAK3 (amino acid sequence 281-1124),”, “and 16” for “and 4”, “said 16” for “said 4”

T1 sequence (O60674 849-1124 limits assumed): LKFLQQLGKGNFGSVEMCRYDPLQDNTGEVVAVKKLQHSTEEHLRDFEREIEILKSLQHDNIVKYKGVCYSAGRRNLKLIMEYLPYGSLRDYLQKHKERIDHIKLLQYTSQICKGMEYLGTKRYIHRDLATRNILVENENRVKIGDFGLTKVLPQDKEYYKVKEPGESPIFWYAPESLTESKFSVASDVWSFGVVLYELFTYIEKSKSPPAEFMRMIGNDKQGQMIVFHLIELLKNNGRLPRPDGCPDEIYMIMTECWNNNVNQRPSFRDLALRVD
Chain of catalytic domain of human JAK3 (P52333 781-1124 limits assumed): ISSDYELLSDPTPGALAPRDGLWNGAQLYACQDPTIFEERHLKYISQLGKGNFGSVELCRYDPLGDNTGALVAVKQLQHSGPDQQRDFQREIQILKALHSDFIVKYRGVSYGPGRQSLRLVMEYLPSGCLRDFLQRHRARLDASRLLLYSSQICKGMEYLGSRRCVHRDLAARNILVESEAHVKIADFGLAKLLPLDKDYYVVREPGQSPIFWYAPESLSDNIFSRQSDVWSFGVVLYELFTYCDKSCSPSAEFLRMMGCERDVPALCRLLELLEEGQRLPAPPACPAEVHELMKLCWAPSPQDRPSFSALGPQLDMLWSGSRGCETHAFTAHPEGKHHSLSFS

Row | Structure (SMILES) | inhibition at 1 µM [1] [%] | inhibition at 1 µM [2] [%]
1 | CC(=O)N1CCC[C@H](n2c(=O)n(C)c3ccc(-c4cnn5ccccc45)nc32)C1 [Example 24, (S)-3-(1-Acetylpiperidin-3-yl)-1-methyl-5-(pyrazolo[1,5-a]pyridin-3-yl)-1H-imidazo[4,5-b]pyridin-2(3H)-one] | > 50 | > 50
2 | CC(=O)OCn1c(=O)n([C@H]2CCCN(C(=O)CC#N)C2)c2nc(-c3cnn4ccccc34)ncc21 [Example 31, (S)-(9-(1-(2-Cyanoacetyl)piperidin-3-yl)-8-oxo-2-(pyrazolo[1,5-a]pyridin-3-yl)-8,9-dihydro-7H-purin-7-yl)methyl acetate] | > 50 | > 50
3 | O=C1CCCN1c1nc2cnc(-c3cnn4ccccc34)nc2n1C1CCOCC1 [Example 34, 1-(2-(Pyrazolo[1,5-a]pyridin-3-yl)-9-(tetrahydro-2H-pyran-4-yl)-9H-purin-8-yl)pyrrolidin-2-one] | > 50 | > 50

Continued, values first:

Row | inhibition at 1 µM [1] [%] | inhibition at 1 µM [2] [%] | Structure (SMILES)
4 | > 50 | > 50 | Cn1c(=O)n([C@H]2CCCN(C(=O)C3(C#N)CC3)C2)c2nc(-c3cnn4ccccc34)ccc21 [Example 25, (S)-1-(3-(1-Methyl-2-oxo-5-(pyrazolo[1,5-a]pyridin-3-yl)-1H-imidazo[4,5-b]pyridin-3(2H)-yl)piperidine-1-carbonyl)cyclopropanecarbonitrile]
5 | > 50 | > 50 | N#Cc1ccn2ncc(-c3ncc4[nH]c(=O)n([C@H]5CCCN(C(=O)C6(C#N)CC6)C5)c4n3)c2c1 [Example 27, (S)-3-(9-(1-(1-Cyanocyclopropanecarbonyl)piperidin-3-yl)-8-oxo-8,9-dihydro-7H-purin-2-yl)pyrazolo[1,5-a]pyridine-5-carbonitrile]
6 | > 50 | > 50 | Cc1ccn2ncc(-c3ncc4ncn([C@H]5CCCN(C(=O)CC#N)C5)c4n3)c2c1 [Example 29, (S)-3-(3-(2-(5-Methylpyrazolo[1,5-a]pyridin-3-yl)-9H-purin-9-yl)piperidin-1-yl)-3-oxopropanenitrile]
7 | > 50 | > 50 | Nc1nc2cnc(-c3cnn4ccccc34)nc2n1C1CCOCC1 [Example 33, 2-(Pyrazolo[1,5-a]pyridin-3-yl)-9-(tetrahydro-2H-pyran-4-yl)-9H-purin-8-amine]
